Data set [1] addresses T1, BTK(WT) in HEK293-BTK(WT) cells (Homo sapiens, UniProt Q06187).
T1 construct: Full-length cDNAs of BTK containing C481S mutation was generated by mutagenesis; expressed in transfected cells
As to the kind of experiment: HEK293-BTK(WT) p-BTK ELISA. It is filed as cell-based. The following applies: 1.5 hour. How it is done:
(§1) The mutated BTK cDNAs were confirmed by sequencing. […] The transfected cells were selected in 2 μg/mL of puromycin. Stable polyclonal cell lines were confirmed by WB and used for further study. […] All the cells were maintained in a humidified incubator at 37° C. with 5% CO2.
(§2) The test compounds were added to the cells and cells were incubated for 1.5 hour at 37° C., 5% CO2. […] The plate was read on a Multiscan Spectrum reader set to 450 nm wavelengths. The data were processed in Graph Pad Prism software.
On the technique in general: An ELISA detects its analyte on a solid surface through an enzyme-linked reagent.

Data set [2] concerns the target T2, BTK-C481S in HEK293-BTK(C481S) cells (Homo sapiens, UniProt Q06187, C481S).
T2 construct: Full-length cDNAs of BTK containing C481S mutation was generated by mutagenesis; expressed in transfected cells
Description: HEK293-BTK(C481S) p-BTK ELISA. It is filed as cell-based. To be noted: 1.5 hour. How it is done: as §1, §2

A short description of data set [3]: In vitro rat hepatocytes clearance assay. The class given is in vitro ADME. How it is done: In Vitro Rat/Human Hepatocytes Clearance Assay
Rat hepatocytes in male gender and human hepatocytes in mixed gender were obtained from commercial vendors (e.g., BioreclamationIVT) and stored at −150° C. prior to use. 10 mM stock solutions of tested compounds were prepared in DMSO. Thawing medium and supplement incubation medium (serum-free) were placed in a 37° C. water bath for at least 15 minutes prior to use. Stock solutions were diluted to 100 μM by combining 198 μL acetonitrile and 2 μL of 10 mM stock solution.
Vials of cryopreserved hepatocytes were removed from storage, ensured that vials remain at cryogenic temperatures. The vials were thawed in a 37° C. water bath with gently shaking. Vials were kept in a water bath until all ice crystals had dissolved and were no longer visible. Vials were sprayed with 70% ethanol before being transferred to a biosafety cabinet. And then the contents were poured into the 50 mL thawing medium conical tube. Vials were centrifuged at 100 g for 10 minutes at room temperature. Thawing medium was aspirated and hepatocytes were resuspended with serum-free incubation medium to yield ^˜1.5×10^6 cells/mL.
Cell viability and density were counted using a Trypan Blue exclusion, and then cells were diluted with serum-free incubation medium to a working cell density of 1×10^6 viable cells/ml. A portion of the hepatocytes at 1×10^6 viable cells/mL was boiled for 10 min prior to adding to the plate as negative control to eliminate the enzymatic activity so that little or no substrate turnover should be observed. The inactivated hepatocytes were used to prepare negative samples, which were used to exclude the misleading factor that resulted from instability of chemical itself.
Aliquots of 247.5 μL hepatocytes were dispensed into each well of a 96-well non-coated plate. The plate was placed in the incubator on an orbital shaker for approximately 10 minutes. Aliquots of 2.5 μL of the 100 μM test compounds were added into respective wells of the non-coated 96-well plate to start the reaction. This assay was performed in duplicate. The plate was incubated in the incubator on an orbital shaker for the designed time points. 20 μL of contents were transferred and mixed with 6 volumes (120 μL) of cold acetonitrile with internal standard to terminate the reaction at time points of 5, 15, 30, 45, 60, 80 and 100 minutes. Samples were centrifuges for 20 minutes at 4000 g and aliquots of 100 μl of the supernatants were used for LC-MS/MS analysis for measurement of test compounds.
In vitro hepatocyte clearance was estimated based on determination of elimination half-life (T1/2) of compounds disappearance from their initial concentrations. Peak area ratios of each compound (test or control) to IS was calculated. Ln (% Control) versus Incubation Time (min) curve was plotted, and the slope of a linear fitting line was calculated. Drug elimination rate constant k (min-1), T1/2 (min), and in vitro intrinsic clearance CLint (μL/min/E6) was calculated according to the following equations: k=−slope T1/2=0.693/k CLint=k/Chep • Where Chep (cells×μL-1) is the cell concentration in the incubation system. Procedure for Log D Determination

Data set [4] is described as follows: Protein binding in human plasma by equilibrium dialysis. To be noted: human, plasma, pH 7.4, human plasma, 18 hours at 37° C., read-out: hPPB (fu %). It is filed as in vitro ADME. As to the method:
[formula] DF means the dilution factor. Procedure for Protein Binding Measurements in Human Plasma by Using Equilibrium Dialysis
Add 597 μL of blank plasma into each vial of a new plastic plate or separate plastic tube by addition of 3 μL of the working solution of each cassette, vortex at 1,000 rpm for 5 minutes. The final percent volume of organic solvent is 0.5% and the final concentration for test compound is 5 μM. Immediately transfer 50 μL of the spiked plasma suspension to a 96-well plate to act as T=0 control sample. The samples are treated the same as the samples after incubation. Place all remaining spiked plasma in the incubator for the duration of the study.
Place inserts open end up into the wells of the base plate. Add 500 μL of phosphate buffer (pH 7.4) to the buffer chamber, which is indicated by the white ring. Add 300 μL of spiked plasma sample into the sample chamber, which is indicated by the red ring. Cover the unit with gas permeable lid and incubate for 18 hours at 37° C. at 300 rpm with 5% CO2 on an orbital shaker in the CO2 incubator. At the end of incubation, remove lid and pipette 50 μL of post-dialysis samples from both buffer and plasma chambers into separated 96-well plate for analysis, respectively.
At the same time, the remaining spiked plasma sample in the plastic plate or separate plastic tube is incubated for 18 hours at 37° C. with 5% CO2 in the CO2 incubator. At T=18 hours, transfer 50 μL of the original spiked plasma suspension to the 96-well plate for analysis.
Add 50 μL of Human plasma to the buffer samples, and an equal volume of PBS to the collected plasma samples. Vortex the plate at 1,000 rpm for 2 minutes and add 400 μL of acetonitrile containing an appropriate internal standard (IS) to precipitate protein and release compound. Vortex at 1,000 rpm for 10 minutes. Centrifuge for 30 minutes at 4,000 rpm. Transfer 250 μl of the supernatant to new 96-well plates and centrifuge again (4,000 rpm, 30 minutes). Then transfer 100 μL of the supernatant to new 96-well plates for analysis. Add 100 μL of distilled water to each sample and vortex for 5 minutes at 1,000 rpm for analysis by LC-MS/MS. All compounds are tested in singlicate at 5 μM in human plasma.
All calculations are carried out using Microsoft Excel.
Calculate the percentage of unbound, percentage of bound and recovery of test compound as follows: […]
A general note: In equilibrium dialysis free small molecules cross a membrane that holds back macromolecules.

The nature of the next data set: Hu Mic Clint. The class given is in vitro ADME, human. The following applies: human, microsomes.

The structures appear in SMILES notation. Some results are limits rather than exact numbers.

T2 sequence (Q06187 whole entry C481S): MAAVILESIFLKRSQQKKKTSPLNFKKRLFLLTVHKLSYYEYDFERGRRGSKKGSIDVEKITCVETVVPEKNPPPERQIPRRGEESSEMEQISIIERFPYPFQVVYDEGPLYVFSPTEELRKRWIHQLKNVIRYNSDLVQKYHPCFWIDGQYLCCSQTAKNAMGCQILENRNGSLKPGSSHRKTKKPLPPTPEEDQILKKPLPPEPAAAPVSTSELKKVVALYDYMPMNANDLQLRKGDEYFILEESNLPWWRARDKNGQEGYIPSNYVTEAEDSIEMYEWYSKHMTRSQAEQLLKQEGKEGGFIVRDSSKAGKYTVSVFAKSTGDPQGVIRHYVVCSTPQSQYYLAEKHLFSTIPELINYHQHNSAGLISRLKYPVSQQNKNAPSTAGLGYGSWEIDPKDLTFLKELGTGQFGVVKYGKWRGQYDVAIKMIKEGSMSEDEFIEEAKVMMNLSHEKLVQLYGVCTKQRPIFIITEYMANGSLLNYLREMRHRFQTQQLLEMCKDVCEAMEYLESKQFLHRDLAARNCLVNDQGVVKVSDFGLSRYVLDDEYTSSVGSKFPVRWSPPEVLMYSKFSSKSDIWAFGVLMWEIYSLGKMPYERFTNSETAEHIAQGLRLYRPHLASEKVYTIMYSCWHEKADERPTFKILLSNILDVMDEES

As to `Nc1ncnn2c(C3CCC(CO)OC3)nc(-c3ccc(Oc4cccc(F)c4F)cc3)c12` (centres unmarked) [Compound 14, (5-(4-amino-5-(4-(2,3-difluorophenoxy)phenyl)imidazo[5,1-f][1,2,4]triazin-7-yl)tetrahydro-2H-pyran-2-yl)methanol], the half-inhibitory concentration (IC50) worked out at 16 nM in data set [1] and 36.3 nM in data set [2]. Moreover, the “Rat Hep Clint” value in data set [3] amounted to 9.48 μL/min/10∧6 cells. For the same molecule, the fraction unbound at 18 h, 5 μM in data set [4] came to 0.049. The molecule further showed a microsomal CLint in the data set “Hu Mic Clint” below 3 µL/min/mg.

For orientation: IC50 means the concentration that gives 50% inhibition. Read a high IC50 as lower potency. The term microsomal CLint denotes the capacity of the preparation to metabolise the compound, expressed as a volume cleared per time. Lower therefore signals slow turnover.

The record behind these values is patent US12624039B2, “BTK inhibitors” (DIZAL (JIANGSU) PHARMACEUTICAL CO., LTD., priority 2020, dated 2026).
